Results from patent US9718788B2, “Heteroaryl compounds useful as inhibitors of E1 activating enzymes” (MILLENNIUM PHARMACEUTICALS, INC., priority 2006, dated 2017).

Each molecule was assayed against T1, recombinant human NAE enzyme (Homo sapiens, UniProt Q8TBC4) (assay: Nedd8-Activating Enzyme (NAE) HTRF Assay). Settings: 20 μM ATP, bound given in nM.
T1 construct: His (N); made in house; host or cells: Sf9 insect cells (baculovirus, Bac-to-Bac)
T1 sequence (Q8TBC4 1-463): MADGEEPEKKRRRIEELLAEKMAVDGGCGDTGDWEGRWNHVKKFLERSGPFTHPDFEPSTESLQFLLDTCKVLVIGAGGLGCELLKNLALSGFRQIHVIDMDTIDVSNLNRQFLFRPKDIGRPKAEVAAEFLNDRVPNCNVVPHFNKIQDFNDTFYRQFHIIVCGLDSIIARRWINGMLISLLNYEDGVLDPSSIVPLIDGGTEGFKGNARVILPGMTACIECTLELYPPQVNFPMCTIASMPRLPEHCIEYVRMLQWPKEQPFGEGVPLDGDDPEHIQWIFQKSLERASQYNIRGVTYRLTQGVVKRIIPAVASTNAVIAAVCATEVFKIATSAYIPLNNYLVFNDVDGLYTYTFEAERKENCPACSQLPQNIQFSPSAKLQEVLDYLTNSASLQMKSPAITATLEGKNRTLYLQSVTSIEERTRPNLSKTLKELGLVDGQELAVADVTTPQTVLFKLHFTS
T1 sequence (Q13564 1-534 partner): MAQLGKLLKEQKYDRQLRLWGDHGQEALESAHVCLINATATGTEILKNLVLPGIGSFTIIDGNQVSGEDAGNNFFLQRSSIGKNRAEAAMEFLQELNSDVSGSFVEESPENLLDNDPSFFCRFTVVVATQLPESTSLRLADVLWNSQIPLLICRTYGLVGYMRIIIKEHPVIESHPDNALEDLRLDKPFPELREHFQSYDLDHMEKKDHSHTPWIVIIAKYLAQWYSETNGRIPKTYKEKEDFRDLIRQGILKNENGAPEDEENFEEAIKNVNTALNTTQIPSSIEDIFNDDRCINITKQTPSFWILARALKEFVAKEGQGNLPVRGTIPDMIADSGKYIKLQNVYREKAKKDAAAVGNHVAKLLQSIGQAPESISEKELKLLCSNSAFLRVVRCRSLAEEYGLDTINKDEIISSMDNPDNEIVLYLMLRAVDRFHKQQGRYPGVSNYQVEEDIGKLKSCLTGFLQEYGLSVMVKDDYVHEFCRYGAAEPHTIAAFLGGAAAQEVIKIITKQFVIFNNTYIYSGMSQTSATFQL
Assay type: biochemical
Procedure, shortened: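 Recombinant human NAE (NAEα/His-NAEβ from Sf9 cells) at 0.20 nM with 20 μM ATP, 0.01 μM Ubc12-GST and 0.075 μM Nedd8-Flag in HEPES pH 7.5, 105 min at 24° C. EDTA stop; Eu-anti-FLAG/APC-anti-GST HTRF read after 1 h.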

IC50 [nM]	SMILES
≤ 500	NS(=O)(=O)OC[C@@H]1C[C@@H](Nc2ncnc3[nH]c(-c4cccc5c4oc4ccccc45)nc23)C[C@@H]1O [Compound I-39, {(1S,2S,4R)-4-[(8-dibenzo[b,d]furan-4-yl-9H-purin-6-yl)amino]-2-hydroxycyclopentyl}methyl sulfamate]
≤ 500	CO[C@@H]1CC(C)(C)c2ccccc2[C@@H]1Nc1cc(O[C@@H]2C[C@@H](COS(N)(=O)=O)[C@@H](O)C2)ncn1 [Compound I-151, {(1S,2S,4R)-2-hydroxy-4-[(6-{[(1S,2R)-2-methoxy-4,4-dimethyl-1,2,3,4-tetrahydronaphthalen-1-yl]amino}pyrimidin-4-yl)oxy]cyclopentyl}methyl sulfamate]
≤ 500	NS(=O)(=O)OC[C@@H]1C[C@@H](Nc2ncnc3[nH]c(-c4ccccc4)nc23)C[C@@H]1O [Compound I-69, {(1S,2S,4R)-2-hydroxy-4-[(8-phenyl-9H-purin-6-yl)amino]cyclopentyl}methyl sulfamate]
≤ 500	NS(=O)(=O)OC[C@@H]1C[C@@H](Nc2ncnc3[nH]c(-c4ccccc4Oc4ccccc4)nc23)C[C@@H]1O [Compound I-37, ((1S,2S,4R)-2-hydroxy-4-{[8-(2-phenoxyphenyl)-9H-purin-6-yl]amino}-cyclopentyl)methyl sulfamate]
